These results are taken from ChEMBL document CHEMBL3991601, “The target landscape of clinical kinase drugs” (Science, 2017).

Experiment [1] concerns the target Tyrosine-protein kinase Fyn (Homo sapiens, UniProt P06241).
Experiment [2] concerns the target BMP-2-inducible protein kinase (Homo sapiens, UniProt Q9NSY1).
Experiment [3] deals with T1, Electron transfer flavoprotein subunit beta (Homo sapiens, UniProt P38117).
T1 sequence (P38117 whole entry): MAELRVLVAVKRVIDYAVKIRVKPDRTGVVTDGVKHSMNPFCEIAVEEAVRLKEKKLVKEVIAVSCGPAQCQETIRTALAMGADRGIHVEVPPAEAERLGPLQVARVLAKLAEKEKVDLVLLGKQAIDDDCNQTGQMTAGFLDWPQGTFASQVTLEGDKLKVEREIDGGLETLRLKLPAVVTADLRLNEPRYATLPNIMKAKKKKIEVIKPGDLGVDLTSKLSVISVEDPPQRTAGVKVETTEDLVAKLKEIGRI

A further experiment deals with T2, Pyridoxal kinase (Homo sapiens, UniProt O00764).
T2 sequence (O00764 whole entry): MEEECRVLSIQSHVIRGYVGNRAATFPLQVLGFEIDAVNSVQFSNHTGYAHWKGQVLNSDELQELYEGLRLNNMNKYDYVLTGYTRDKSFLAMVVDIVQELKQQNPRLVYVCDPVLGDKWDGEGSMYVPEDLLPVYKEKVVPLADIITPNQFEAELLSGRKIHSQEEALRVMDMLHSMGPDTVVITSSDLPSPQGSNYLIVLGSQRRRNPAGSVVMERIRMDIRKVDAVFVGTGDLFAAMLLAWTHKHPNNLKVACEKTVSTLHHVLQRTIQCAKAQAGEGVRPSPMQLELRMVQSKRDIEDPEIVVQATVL

Experiment [4] addresses T3, DNA replication licensing factor MCM4 (Homo sapiens, UniProt P33991).
T3 sequence (P33991 whole entry): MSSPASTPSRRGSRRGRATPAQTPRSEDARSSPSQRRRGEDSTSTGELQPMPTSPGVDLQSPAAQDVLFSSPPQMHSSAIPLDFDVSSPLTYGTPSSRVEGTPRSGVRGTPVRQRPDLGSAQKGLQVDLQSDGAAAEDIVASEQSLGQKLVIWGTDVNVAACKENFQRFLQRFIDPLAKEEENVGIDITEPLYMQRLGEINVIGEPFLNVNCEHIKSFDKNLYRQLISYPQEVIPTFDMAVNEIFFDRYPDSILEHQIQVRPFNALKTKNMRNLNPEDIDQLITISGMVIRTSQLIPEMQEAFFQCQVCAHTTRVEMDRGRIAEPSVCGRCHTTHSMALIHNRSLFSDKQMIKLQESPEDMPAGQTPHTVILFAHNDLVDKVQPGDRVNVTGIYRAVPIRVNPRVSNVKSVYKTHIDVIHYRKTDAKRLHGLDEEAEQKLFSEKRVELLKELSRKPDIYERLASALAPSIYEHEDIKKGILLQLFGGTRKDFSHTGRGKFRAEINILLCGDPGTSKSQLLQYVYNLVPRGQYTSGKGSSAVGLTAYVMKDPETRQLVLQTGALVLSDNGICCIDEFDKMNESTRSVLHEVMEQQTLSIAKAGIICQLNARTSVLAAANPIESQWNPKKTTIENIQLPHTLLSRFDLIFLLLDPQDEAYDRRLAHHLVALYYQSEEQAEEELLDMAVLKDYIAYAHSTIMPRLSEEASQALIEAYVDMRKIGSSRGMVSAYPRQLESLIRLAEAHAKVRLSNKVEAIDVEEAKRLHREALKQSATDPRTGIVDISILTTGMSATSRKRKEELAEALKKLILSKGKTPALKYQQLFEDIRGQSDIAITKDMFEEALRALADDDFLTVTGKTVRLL

Experiment [5] addresses Mitogen-activated protein kinase 8 (Homo sapiens, UniProt P45983).
For experiment [6], the target named is STE20-like serine/threonine-protein kinase (Homo sapiens, UniProt Q9H2G2).
Experiment [7] has as its target T4, Serine/threonine-protein kinase STK11 (Homo sapiens, UniProt Q15831).
T4 sequence (Q15831 whole entry): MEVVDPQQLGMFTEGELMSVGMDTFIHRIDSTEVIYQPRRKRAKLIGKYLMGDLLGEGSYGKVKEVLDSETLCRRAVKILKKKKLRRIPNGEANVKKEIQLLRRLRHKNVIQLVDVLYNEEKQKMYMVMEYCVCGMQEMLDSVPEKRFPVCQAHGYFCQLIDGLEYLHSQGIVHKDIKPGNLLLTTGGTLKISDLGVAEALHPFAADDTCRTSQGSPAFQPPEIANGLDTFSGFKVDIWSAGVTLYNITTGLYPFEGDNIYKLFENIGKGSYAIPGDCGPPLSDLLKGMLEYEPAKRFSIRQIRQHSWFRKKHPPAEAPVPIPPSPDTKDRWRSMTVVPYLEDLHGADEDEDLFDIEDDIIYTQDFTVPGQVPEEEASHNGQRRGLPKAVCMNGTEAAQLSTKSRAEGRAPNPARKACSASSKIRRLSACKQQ

Experiment [8] has as its target T5, Serine/threonine-protein kinase 3 (Homo sapiens, UniProt Q13188).
T5 sequence (Q13188 whole entry): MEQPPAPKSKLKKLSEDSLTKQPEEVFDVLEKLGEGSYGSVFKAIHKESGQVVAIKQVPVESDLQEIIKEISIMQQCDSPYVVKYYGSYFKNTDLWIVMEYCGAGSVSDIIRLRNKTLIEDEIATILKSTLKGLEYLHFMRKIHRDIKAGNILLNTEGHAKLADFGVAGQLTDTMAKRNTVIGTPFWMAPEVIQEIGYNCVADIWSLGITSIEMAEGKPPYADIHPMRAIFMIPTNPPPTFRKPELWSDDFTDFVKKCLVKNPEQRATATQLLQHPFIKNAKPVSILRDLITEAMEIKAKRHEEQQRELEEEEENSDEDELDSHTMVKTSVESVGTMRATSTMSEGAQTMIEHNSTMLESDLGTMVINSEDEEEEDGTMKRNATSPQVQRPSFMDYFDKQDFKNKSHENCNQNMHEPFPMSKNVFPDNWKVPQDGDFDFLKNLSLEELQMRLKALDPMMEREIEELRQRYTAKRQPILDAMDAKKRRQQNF

The target in experiment [9] is T6, Cytochrome c1, heme protein, mitochondrial (Homo sapiens, UniProt P08574).
T6 sequence (P08574 whole entry): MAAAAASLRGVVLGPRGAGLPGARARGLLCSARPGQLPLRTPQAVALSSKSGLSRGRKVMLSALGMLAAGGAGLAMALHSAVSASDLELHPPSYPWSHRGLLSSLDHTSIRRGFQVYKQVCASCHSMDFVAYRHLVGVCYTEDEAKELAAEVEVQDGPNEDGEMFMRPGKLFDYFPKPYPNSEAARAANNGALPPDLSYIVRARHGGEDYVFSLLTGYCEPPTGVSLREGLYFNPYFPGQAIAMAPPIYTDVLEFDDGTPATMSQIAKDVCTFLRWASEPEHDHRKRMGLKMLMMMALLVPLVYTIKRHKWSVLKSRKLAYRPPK

pKd: −log10 of the molar value. The source made the active and inactive calls.
Note: in the data inactive means no Kd found up to 30 µM.

Tyrosine-protein kinase Fyn, sequence (P06241 whole entry): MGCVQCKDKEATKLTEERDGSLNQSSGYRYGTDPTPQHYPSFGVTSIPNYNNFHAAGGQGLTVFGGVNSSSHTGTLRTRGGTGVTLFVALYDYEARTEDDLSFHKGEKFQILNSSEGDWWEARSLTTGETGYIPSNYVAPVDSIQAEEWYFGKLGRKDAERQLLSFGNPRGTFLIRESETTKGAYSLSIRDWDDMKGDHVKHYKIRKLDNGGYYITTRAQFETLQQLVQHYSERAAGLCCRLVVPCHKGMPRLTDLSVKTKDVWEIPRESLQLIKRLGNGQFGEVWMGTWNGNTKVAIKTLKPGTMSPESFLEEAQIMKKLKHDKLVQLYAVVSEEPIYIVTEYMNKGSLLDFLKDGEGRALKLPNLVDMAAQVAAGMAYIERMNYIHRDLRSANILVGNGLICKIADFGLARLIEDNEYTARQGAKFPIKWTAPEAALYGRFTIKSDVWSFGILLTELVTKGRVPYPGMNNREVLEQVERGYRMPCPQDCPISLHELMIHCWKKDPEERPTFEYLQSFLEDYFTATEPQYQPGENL
Mitogen-activated protein kinase 8, sequence (P45983 whole entry): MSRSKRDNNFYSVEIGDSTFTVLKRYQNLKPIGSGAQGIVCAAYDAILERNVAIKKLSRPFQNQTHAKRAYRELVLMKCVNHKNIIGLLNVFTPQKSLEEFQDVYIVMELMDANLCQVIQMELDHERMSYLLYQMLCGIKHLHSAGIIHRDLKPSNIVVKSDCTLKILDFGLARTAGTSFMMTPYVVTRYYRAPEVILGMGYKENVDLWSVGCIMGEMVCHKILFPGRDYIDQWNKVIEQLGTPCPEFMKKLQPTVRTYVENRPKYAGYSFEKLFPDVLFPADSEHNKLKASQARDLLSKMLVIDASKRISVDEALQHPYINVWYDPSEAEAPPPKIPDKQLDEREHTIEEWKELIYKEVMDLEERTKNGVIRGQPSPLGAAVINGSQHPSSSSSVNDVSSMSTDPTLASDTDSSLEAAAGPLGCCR
BMP-2-inducible protein kinase, sequence (Q9NSY1 whole entry): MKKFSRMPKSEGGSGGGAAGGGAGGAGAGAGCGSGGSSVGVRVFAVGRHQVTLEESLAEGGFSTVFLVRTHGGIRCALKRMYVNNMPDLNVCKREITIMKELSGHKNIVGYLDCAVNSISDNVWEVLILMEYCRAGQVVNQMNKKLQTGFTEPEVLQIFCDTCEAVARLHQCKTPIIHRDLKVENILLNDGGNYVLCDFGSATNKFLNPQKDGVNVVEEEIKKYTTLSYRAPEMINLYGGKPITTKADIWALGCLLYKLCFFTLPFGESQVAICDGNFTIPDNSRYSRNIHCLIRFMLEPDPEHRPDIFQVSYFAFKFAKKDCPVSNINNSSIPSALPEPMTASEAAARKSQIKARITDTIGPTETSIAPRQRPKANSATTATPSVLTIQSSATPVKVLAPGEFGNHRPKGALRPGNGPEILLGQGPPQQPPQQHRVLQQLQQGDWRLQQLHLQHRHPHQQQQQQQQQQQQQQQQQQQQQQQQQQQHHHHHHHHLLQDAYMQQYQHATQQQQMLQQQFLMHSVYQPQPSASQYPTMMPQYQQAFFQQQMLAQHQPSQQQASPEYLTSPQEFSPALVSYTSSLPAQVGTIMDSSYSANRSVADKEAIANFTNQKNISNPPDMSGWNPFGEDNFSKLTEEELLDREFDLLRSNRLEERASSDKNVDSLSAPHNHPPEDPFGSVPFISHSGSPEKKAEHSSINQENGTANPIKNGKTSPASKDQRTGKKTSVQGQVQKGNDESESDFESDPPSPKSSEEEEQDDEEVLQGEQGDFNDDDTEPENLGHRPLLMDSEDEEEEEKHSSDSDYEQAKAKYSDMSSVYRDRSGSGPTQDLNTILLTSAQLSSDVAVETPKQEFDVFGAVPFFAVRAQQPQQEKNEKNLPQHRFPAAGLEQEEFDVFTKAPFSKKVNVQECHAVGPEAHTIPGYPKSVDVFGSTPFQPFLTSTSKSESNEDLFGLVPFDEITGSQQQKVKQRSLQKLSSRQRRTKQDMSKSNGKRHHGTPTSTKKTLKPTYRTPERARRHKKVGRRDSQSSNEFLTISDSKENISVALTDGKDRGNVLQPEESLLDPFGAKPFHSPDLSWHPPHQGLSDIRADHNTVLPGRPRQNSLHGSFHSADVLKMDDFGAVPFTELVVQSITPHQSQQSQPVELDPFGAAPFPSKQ
STE20-like serine/threonine-protein kinase, sequence (Q9H2G2 whole entry): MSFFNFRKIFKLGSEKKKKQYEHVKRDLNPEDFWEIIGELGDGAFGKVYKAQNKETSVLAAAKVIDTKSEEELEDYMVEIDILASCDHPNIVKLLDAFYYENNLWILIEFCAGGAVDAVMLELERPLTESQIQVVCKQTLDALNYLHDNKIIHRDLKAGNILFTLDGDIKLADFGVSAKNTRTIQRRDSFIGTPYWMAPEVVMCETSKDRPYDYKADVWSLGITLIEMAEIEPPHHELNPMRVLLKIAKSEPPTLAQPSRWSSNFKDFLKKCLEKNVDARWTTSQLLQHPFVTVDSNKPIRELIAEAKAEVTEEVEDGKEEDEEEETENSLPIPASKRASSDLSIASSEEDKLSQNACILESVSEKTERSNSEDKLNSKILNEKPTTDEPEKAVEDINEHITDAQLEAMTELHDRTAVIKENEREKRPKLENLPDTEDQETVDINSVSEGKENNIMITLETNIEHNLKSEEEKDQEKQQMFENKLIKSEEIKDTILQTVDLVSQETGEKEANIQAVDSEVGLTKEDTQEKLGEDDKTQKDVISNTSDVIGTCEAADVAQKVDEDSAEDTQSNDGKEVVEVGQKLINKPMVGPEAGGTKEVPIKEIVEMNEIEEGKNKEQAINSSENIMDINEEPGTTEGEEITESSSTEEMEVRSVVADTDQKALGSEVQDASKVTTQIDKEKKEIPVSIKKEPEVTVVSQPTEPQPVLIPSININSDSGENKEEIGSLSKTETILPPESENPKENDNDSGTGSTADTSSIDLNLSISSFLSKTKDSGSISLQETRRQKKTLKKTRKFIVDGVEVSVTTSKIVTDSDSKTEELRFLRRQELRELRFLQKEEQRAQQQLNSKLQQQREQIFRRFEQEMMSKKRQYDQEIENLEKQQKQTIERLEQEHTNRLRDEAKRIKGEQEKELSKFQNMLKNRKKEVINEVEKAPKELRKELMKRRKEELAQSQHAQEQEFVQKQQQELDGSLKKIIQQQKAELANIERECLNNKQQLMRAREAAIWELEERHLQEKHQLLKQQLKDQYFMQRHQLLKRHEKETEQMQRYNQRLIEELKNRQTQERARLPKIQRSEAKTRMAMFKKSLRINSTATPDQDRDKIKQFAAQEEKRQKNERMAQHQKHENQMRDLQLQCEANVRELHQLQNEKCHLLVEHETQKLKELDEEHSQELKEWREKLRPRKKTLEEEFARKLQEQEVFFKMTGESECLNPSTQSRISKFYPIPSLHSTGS

For the compound `Cc1c(Cn2c(C)nc3c(C(=O)O)cc(N4CCOCC4)cc32)cccc1C(F)(F)F` [GSK-2636771], the Kd (in experiment [1]; in [2]; in experiment [3]; at Pyridoxal kinase; in experiment [4]; in [5]) was > 30 µM (inactive) each time. Moreover, the Kd in experiment [6], in experiment [7], in experiment [8] and in experiment [9] was > 30 µM (inactive) throughout.

With `Cn1cc(-c2[nH]c3cc(NC(=O)[C@H](N)C4CCCCC4)cc4c3c2C=NNC4=O)cn1`, the Kd is 1.34 µM (active) in experiment [1]; 0.006 µM (active) in experiment [2]; > 30 µM (inactive) in [3]; > 30 µM (inactive) at Pyridoxal kinase; > 30 µM (inactive) in experiment [4]; > 30 µM (inactive) in experiment [5]. Further, the Kd in [6] was > 30 µM (inactive); in experiment [7], 4.37 µM (active); in [8], > 30 µM (inactive); in [9], > 30 µM (inactive).

As to `CCc1cc2c(cc1N1CCC(N3CCOCC3)CC1)C(C)(C)c1[nH]c3cc(C#N)ccc3c1C2=O` [ALECTINIB], the Kd (in experiment [1]; in experiment [2]; in experiment [3]; at Pyridoxal kinase; in experiment [4]; in experiment [5]) was > 30 µM (inactive) throughout. The Kd in [6], in [7], in experiment [8] and in experiment [9] was > 30 µM (inactive) in each case.

In the case of `C#Cc1cccc(Nc2ncnc3cc4c(cc23)OCCOCCOCCO4)c1` [ICOTINIB], the Kd (in experiment [1]; in [2]; in experiment [3]; on Pyridoxal kinase; in [4]; in [5]) was > 30 µM (inactive) each time. The dissociation constant Kd in [6] was 1.05 µM (active); in experiment [7] it was > 30 µM (inactive); in experiment [8], > 30 µM (inactive); in [9] it was > 30 µM (inactive).

Take `CC1(COc2ccc3c(c2)ncn3-c2ccc3cccc(N4CCC(N)CC4)c3n2)COC1` [CRENOLANIB]: the Kd was > 30 µM (inactive) in experiment [1]; 1.2 µM (active) in [2]; > 30 µM (inactive) on Pyridoxal kinase; > 30 µM (inactive) in experiment [4]; > 30 µM (inactive) in [5]; > 30 µM (inactive) in experiment [6]. Further, the Kd is > 30 µM (inactive) in experiment [7], 0.743 µM (active) in [8] and > 30 µM (inactive) in experiment [9]. Moreover, the pKd in [3] is 7.92.

For the compound `Cn1c(=O)c(F)c(Nc2ccc(I)cc2F)c2c(=O)n(C[C@@H](O)CO)cnc21` [TAK-733], the Kd (in experiment [1]; in experiment [2]; in experiment [3]; on Pyridoxal kinase; in experiment [4]; in [5]) was > 30 µM (inactive) in each case. The Kd in experiment [6], in experiment [7], in [8] and in experiment [9] was > 30 µM (inactive) throughout.

`COc1cc2ncnc3c2cc1OCCCCCN(C)Cc1ccc(Br)cc1N3` [JNJ-26483327]: the Kd (in experiment [1]; in experiment [2]; in [3]; on Pyridoxal kinase; in experiment [4]; in experiment [5]) was > 30 µM (inactive) each time. Moreover, the Kd in experiment [6], in experiment [7], in [8] and in experiment [9] was > 30 µM (inactive) each time.

In the case of `CCOc1ccn(-c2ccc(F)cc2)c(=O)c1C(=O)Nc1ccc(Oc2ccnc(N)c2Cl)c(F)c1` [BMS-777607], the Kd (in experiment [1]; in [2]; in experiment [3]; at Pyridoxal kinase; in experiment [4]; in experiment [5]) was > 30 µM (inactive) in each case. Besides, the Kd in experiment [6], in experiment [7], in [8] and in experiment [9] was > 30 µM (inactive) each time.

Take `COc1ccc2c(OCc3nnc4ccc(-c5ccccc5)nn34)ccnc2c1` [AMG-208]: the Kd (in [1]; in experiment [2]; in experiment [3]; on Pyridoxal kinase; in experiment [4]; in experiment [5]) was > 30 µM (inactive) throughout. The Kd in experiment [6], in experiment [7], in experiment [8] and in experiment [9] was > 30 µM (inactive) in each case.

Take `O=C(NC[C@H](O)CO)c1ccncc1Nc1ccc(I)cc1F` [PIMASERTIB]: the Kd (in [1]; in experiment [2]; in [3]; at Pyridoxal kinase; in experiment [4]; in experiment [5]) was > 30 µM (inactive) throughout. Further, the Kd in [6], in [7], in [8] and in experiment [9] was > 30 µM (inactive) in each case.

For orientation: Kd means the free concentration of one partner at which half of the binding sites on the other are occupied at equilibrium, for simple one-to-one binding. For orientation: pKd means the negative decadic logarithm of the Kd, by convention in mol/L. A higher pKd goes with a low Kd.
